The values that follow come from PubChem BioAssay (NCI).

Molecules are shown by their SMILES.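 Five compound concentrations were applied to cells in 96-well plates for 48 hours; endpoints were derived by simple linear interpolation of the resulting dose-response curve. TGI marks complete inhibition of growth.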 Bounds are passed on as bounds.

Test systems include CCRF-CEM leukemia; HS 578T breast; OVCAR-3 ovarian; HCT-15 colon; RPMI-8226 leukemia; ACHN renal; OVCAR-8 ovarian; LOX IMVI melanoma; NCI/ADR-RES ovarian; BT-549 breast; COLO 205 colon; DU-145 prostate; HT29 colon; SK-MEL-28 melanoma; U251 CNS; SK-MEL-2 melanoma; CAKI-1 renal; SF-539 CNS.
Test in all cases: NCI anticancer screen, dose series, 48 h

In the case of `O=c1oc2ccc([N+](=O)[O-])cc2c(Nc2ccc3c(c2)S(=O)(=O)c2ccccc2O3)c1[N+](=O)[O-]`, the TGI in the test on CCRF-CEM leukemia, in the test on HS 578T breast, in the test on OVCAR-3 ovarian, in the test with HCT-15 colon, in the test on RPMI-8226 leukemia and in the test with ACHN renal was greater than 100 µM throughout. Further, the TGI in the test with OVCAR-8 ovarian, in the test with LOX IMVI melanoma, in the test on NCI/ADR-RES ovarian, in the test with BT-549 breast, in the test with COLO 205 colon and in the test on DU-145 prostate was greater than 100 µM in each case. Also, the TGI with HT29 colon, in the test on SK-MEL-28 melanoma, in the test on U251 CNS, with SK-MEL-2 melanoma, in the test on CAKI-1 renal and with SF-539 CNS was greater than 100 µM throughout.
Turning to `CC(=O)O[C@@H](C1C[C@@H](C)[C@H]2[C@@](O)(O1)[C@H](O)[C@@]1(C)C3=CC[C@H]4C(C)(C)[C@@H](OC5OCC(O)C(O)C5O)CC[C@@]45C[C@@]35CC[C@]21C)C(C)(C)O` (some centres undefined), the TGI with CCRF-CEM leukemia was 24.4 µM; in the test with HS 578T breast, greater than 100 µM; with OVCAR-3 ovarian it was 41.9 µM; in the test with HCT-15 colon, 71.1 µM; with RPMI-8226 leukemia, 59.5 µM; with ACHN renal, 47.2 µM. Besides, the TGI is greater than 100 µM with OVCAR-8 ovarian; 42.4 µM in the test with LOX IMVI melanoma; greater than 100 µM in the test with NCI/ADR-RES ovarian; 80.8 µM in the test on BT-549 breast; 48.4 µM in the test on COLO 205 colon; 70 µM in the test with DU-145 prostate. For the same compound, the TGI in the test on HT29 colon is greater than 100 µM; in the test on SK-MEL-28 melanoma it was 57 µM; in the test on U251 CNS, 36 µM; in the test on SK-MEL-2 melanoma, 36.9 µM; in the test with CAKI-1 renal, greater than 100 µM; in the test with SF-539 CNS, 30.3 µM.
For `O=C1c2ccccc2-c2c1c(-c1cccc(Br)c1)nc1ccc3ccccc3c21`, the TGI with CCRF-CEM leukemia, with HS 578T breast, in the test with OVCAR-3 ovarian, with HCT-15 colon, with RPMI-8226 leukemia and in the test with ACHN renal was greater than 100 µM in each case. For the same compound, the TGI with OVCAR-8 ovarian, in the test with LOX IMVI melanoma, in the test on NCI/ADR-RES ovarian, in the test with BT-549 breast, in the test with COLO 205 colon and with DU-145 prostate was greater than 100 µM throughout. Moreover, the TGI in the test on HT29 colon, in the test on SK-MEL-28 melanoma, in the test on U251 CNS, in the test on SK-MEL-2 melanoma, with CAKI-1 renal and with SF-539 CNS was greater than 100 µM throughout.
